Measured values as given in ChEMBL document CHEMBL1201862, “PubChem BioAssay data set” (2004).
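Method: 48-hour compound exposure of cells in 96-well plates, five concentrations, linear interpolation of endpoints. GI50 = concentration required for 50% inhibition of growth.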 Active and inactive are the calls of the source. No stated cut-off is given here; in the data, active = GI50 up to about 1.1 µM and inactive = higher.

Tests used:
Experiment in all cases: DTP human tumour cell line panel, 48 h
DMS-114 = test system: DMS-114
DMS-273 = test system: DMS-273
HOP-18 = test system: HOP-18
KM-20L2 = test system: KM-20L2
M19-MEL = test system: M19-MEL
SNB-78 = test system: SNB-78
XF498 = test system: XF498
LXFL 529 = test system: LXFL 529
RXF 631 = test system: RXF 631

CCOC(=O)C1=C(O)C(=O)c2ccoc2C1=O
GI50 (DMS-114): > 100 µM (inactive) | GI50 (DMS-273): > 100 µM (inactive) | GI50 (HOP-18): > 100 µM (inactive) | GI50 (KM-20L2): > 100 µM (inactive) | GI50 (M19-MEL): > 100 µM (inactive) | GI50 (SNB-78): > 100 µM (inactive) | GI50 (XF498): > 100 µM (inactive)

O=C(Nc1cccc2ccccc12)Oc1ccccc1C1CCCCC1
GI50 (DMS-114): 19.9 µM (inactive) | GI50 (DMS-273): 21.2 µM (inactive) | GI50 (HOP-18): 16.3 µM (inactive) | GI50 (KM-20L2): 20.9 µM (inactive) | GI50 (LXFL 529): 18.3 µM (inactive) | GI50 (M19-MEL): 22.3 µM (inactive) | GI50 (RXF 631): 19.5 µM (inactive) | GI50 (SNB-78): 23.4 µM (inactive)

CC(=O)OCC1OC(n2c(=S)n(-c3ccccc3)c(=O)c3cc(Br)ccc32)C(OC(C)=O)C1OC(C)=O (stereo not given)
GI50 (DMS-114): 99.8 µM (inactive) | GI50 (DMS-273): > 100 µM (inactive) | GI50 (HOP-18): > 100 µM (inactive) | GI50 (KM-20L2): > 100 µM (inactive) | GI50 (LXFL 529): 65.3 µM (inactive) | GI50 (M19-MEL): > 100 µM (inactive) | GI50 (SNB-78): > 100 µM (inactive) | GI50 (XF498): 71.8 µM (inactive)

Cc1ccc(S(=O)(=O)C2=c3nc4ccccc4cc3=C3C(=O)c4ccccc4C(=O)C32)cc1 (stereo not given)
GI50 (DMS-114): > 100 µM (inactive) | GI50 (DMS-273): > 100 µM (inactive) | GI50 (KM-20L2): > 100 µM (inactive) | GI50 (LXFL 529): > 100 µM (inactive) | GI50 (M19-MEL): > 100 µM (inactive) | GI50 (XF498): > 100 µM (inactive)

NC(=O)C12CC3CC(CC(F)(C3)C1)C2
GI50 (DMS-114): > 100 µM (inactive) | GI50 (DMS-273): > 100 µM (inactive) | GI50 (KM-20L2): > 100 µM (inactive) | GI50 (LXFL 529): > 100 µM (inactive) | GI50 (M19-MEL): > 100 µM (inactive) | GI50 (SNB-78): > 100 µM (inactive) | GI50 (XF498): > 100 µM (inactive)

O=C1OC(c2ccccc2)(c2ccccc2)CC1CN1CCOCC1 (stereo not given)
GI50 (DMS-114): 18 µM (inactive) | GI50 (DMS-273): 38.2 µM (inactive) | GI50 (HOP-18): 14.6 µM (inactive) | GI50 (KM-20L2): 18.2 µM (inactive) | GI50 (LXFL 529): 13.9 µM (inactive) | GI50 (M19-MEL): 15.9 µM (inactive) | GI50 (RXF 631): 18.5 µM (inactive)

CC#COS(=O)(=O)c1ccc(C)cc1
GI50 (DMS-114): 32.7 µM (inactive) | GI50 (KM-20L2): 46.5 µM (inactive) | GI50 (LXFL 529): 41 µM (inactive) | GI50 (M19-MEL): 70.1 µM (inactive) | GI50 (SNB-78): 63.5 µM (inactive)

Nc1nc(N)c(CCCCc2ccccc2)c(/C=C/c2ccc([N+](=O)[O-])cc2)n1
GI50 (DMS-114): 1.45 µM (inactive) | GI50 (KM-20L2): 2.49 µM (inactive) | GI50 (LXFL 529): 3.21 µM (inactive) | GI50 (M19-MEL): 3.36 µM (inactive) | GI50 (SNB-78): 2.59 µM (inactive) | GI50 (XF498): 1.84 µM (inactive)

O=C(CC/C(CC(=O)c1ccc(Cl)cc1)=N/O)Nc1ccc(Cl)c(Cl)c1
GI50 (DMS-114): 65.3 µM (inactive) | GI50 (DMS-273): > 100 µM (inactive) | GI50 (HOP-18): > 100 µM (inactive) | GI50 (KM-20L2): 36.2 µM (inactive) | GI50 (LXFL 529): 80.7 µM (inactive) | GI50 (M19-MEL): > 100 µM (inactive) | GI50 (RXF 631): > 100 µM (inactive) | GI50 (SNB-78): > 100 µM (inactive) | GI50 (XF498): > 100 µM (inactive)

COc1cc2ccc(/C(C)=N/OC(C)=O)cc2cc1OC
GI50 (DMS-114): > 100 µM (inactive) | GI50 (DMS-273): 73.8 µM (inactive) | GI50 (HOP-18): 58.2 µM (inactive) | GI50 (KM-20L2): > 100 µM (inactive) | GI50 (LXFL 529): 95.9 µM (inactive) | GI50 (M19-MEL): > 100 µM (inactive) | GI50 (RXF 631): 97.7 µM (inactive) | GI50 (SNB-78): 92.9 µM (inactive) | GI50 (XF498): 83.6 µM (inactive)

C[N+](C)=c1nc(N2CCOCC2)ss1
GI50 (DMS-273): > 100 µM (inactive) | GI50 (LXFL 529): > 100 µM (inactive) | GI50 (RXF 631): 0.337 µM (active) | GI50 (SNB-78): > 100 µM (inactive) | GI50 (XF498): > 100 µM (inactive)

O=C(O)CCN(CCCCN(CCC(=O)O)CCC(=O)O)CCC(=O)O
GI50 (DMS-114): > 100 µM (inactive) | GI50 (DMS-273): > 100 µM (inactive) | GI50 (HOP-18): > 100 µM (inactive) | GI50 (LXFL 529): > 100 µM (inactive) | GI50 (M19-MEL): > 100 µM (inactive) | GI50 (XF498): > 100 µM (inactive)

[O-][S+]1[C@H](c2ccccc2)c2c(-c3ccccc3)sc(-c3ccccc3)c2[C@@H]1c1ccccc1 (stereo not given in full)
GI50 (DMS-114): 10.2 µM (inactive) | GI50 (DMS-273): > 100 µM (inactive) | GI50 (HOP-18): 11.4 µM (inactive) | GI50 (KM-20L2): 5.79 µM (inactive) | GI50 (LXFL 529): > 100 µM (inactive) | GI50 (M19-MEL): > 100 µM (inactive) | GI50 (RXF 631): 39 µM (inactive)
